Assay results taken from US11465987B2, “Compounds for treatment of cancer” (ONCTERNAL THERAPEUTICS, INC., priority 2012, dated 2022).
Where two headings read alike, the source gives them in different places.

Legend:
[1] = test system: LNCaP human prostate cancer cell line; assay: Cytotoxicity (SRB) assay, LNCaP; type: cell-based; conditions: Homo sapiens, LNCaP
Text: (§1) Cells were stained with SRB solution.

[2] = test system: PC-3 human prostate cancer cell line; assay: cells; conditions: Homo sapiens
Text: as §1

CYP enzymes = assay: CYP enzyme inhibition assays
[3] = Pharmacokinetic study in Sprague-Dawley rats; conditions: Rat PK, PO 10 mg/kg
PC-3_TxR xenograft = assay: In vivo PC-3/TxR xenograft; conditions: PC-3/TxR mice; 17ya […], 55 30 mg/kg
[4] = test system: PPC-1 human prostate cancer cell line; assay: Cytotoxicity (SRB) assay, PPC-1; type: cell-based; conditions: Homo sapiens
Text: as §1

[5] = Permeability (drug-like properties)
[6] = test system: melanoma and prostate cancer cell lines; assay: Antiproliferative activity summarised over the cell line panel (range or average); type: cell-based; conditions: read-out: IC50 range against prostate cancer cells, range over prostate cancer cell lines
[7] = test system: tubulin (colchicine, vinblastine and paclitaxel binding sites); assay: MS competition binding assay; conditions: competitive mass binding assay
Text: Each reaction was run in triplicate.

[8] = Pharmacokinetic study in ICR mice; conditions: Mouse PK
[9] = Pharmacokinetic study in beagle dogs; conditions: Dog PK, PO 5 mg/kg
[10] = test system: confluent HUVEC monolayers; assay: Endothelial monolayer permeability assay; conditions: FITC-dextran leakage, 1, 2, 4 h
PC-3 xenograft = assay: In vivo PC-3 prostate tumor xenograft; conditions: PC-3, 0.5 mg/kg q2d, day 22
BCRP resistant cell line = assay: Cytotoxicity in BCRP-mediated resistant cell line; conditions: read-out: IC50 ± SEM, HEK293-482R2
[11] = test system: OVCAR-8 human ovarian cell line; assay: Cytotoxicity (SRB) assay, OVCAR-8; type: cell-based; conditions: Table 14B, parental cell line, read-out: IC50 ± SEM, OVCAR-8
HEK293-pcDNA3.1 cells = assay: Cytotoxicity assay, HEK293-pcDNA3.1 (parental line of the MRP/BCRP sublines); type: cell-based; conditions: Table 14B; parental cell line; read-out: IC50 ± SEM, HEK293-pcDNA3.1
[12] = test system: A375 human melanoma cell line; assay: Cytotoxicity (SRB) assay, A375; type: cell-based; conditions: Homo sapiens
[13] = Rotarod test (in vivo neurotoxicity); set-up: species or system mouse; conditions: ICR mice, i.p. daily; 1h 5 or 15 mg/kg, vinblastine 0.5 mg/kg
Method: ICR mice received training three times a day for two days to enable them to stay on the rotating rod for >120 seconds at 12 rpm. Mice were then randomized by the length of time that they could stay on the rotating rod and divided into 7-8 mice per group. […] The rotarod test was performed twice a week. […] The rod speed was increased from […] to 40 rpm over a period of 5 min. Performance was measured as the length of time that a mouse could stay on the rotating rod.

[14] = test system: A375MA2 melanoma cell line; assay: Cytotoxicity assay, A375MA2; type: cell-based; conditions: Table 14B, n = 3; read-out: IC50 ± SEM, A375MA2
[15] = test system: WM-164 human melanoma cell line; assay: Cytotoxicity (SRB) assay, WM-164; type: cell-based; conditions: Homo sapiens, n = 3, read-out: IC50 ± SEM, WM-164
[16] = test system: MDA-MB-435/LCCMDR1 multidrug-resistant melanoma cells; assay: Cytotoxicity (SRB) assay, MDA-MB-435/LCCMDR1; type: cell-based
MES-SA cells = assay: Growth inhibition (SRB) assay, MES-SA; type: cell-based; conditions: Homo sapiens
[17] = test system: B16-F1 mouse melanoma cell line; assay: Cytotoxicity (SRB) assay, B16-F1; type: cell-based; conditions: Mus musculus
[18] = test system: MDA-MB-435 parental nonresistant melanoma cells; assay: Cytotoxicity (SRB) assay, MDA-MB-435; type: cell-based; conditions: Homo sapiens
[19] = test system: DU 145 human prostate cancer cell line; assay: Cytotoxicity (SRB) assay, DU 145; type: cell-based; conditions: Homo sapiens
Text: as §1

MES-SA/DX5 cells = assay: Growth inhibition (SRB) assay, MES-SA/Dx5; type: cell-based; conditions: Homo sapiens, MES-SA/Dx5
[20] = SRB assay, prostate cancer LNCaP, read-out: IC50 LNCaP
[21] = read-out: IC50 PC-3, SRB assay, prostate cancer PC-3
[22] = PPC-1, SRB assay, prostate cancer PPC-1, read-out: IC50 PPC-1

**Q.** For `COc1cc(C(=O)c2csc(Nc3ccc4[nH]ccc4c3)n2)cc(OC)c1OC` [compound 55, (2-(1H-INDOL-5-YLAMINO)THIAZOL-4-YL)(3,4,5-TRIMETHOXYPHENYL)METHANONE], which IC50 [1, 20] is on record?
**A.** The IC50 was 13 ± 1 nM.

**Q.** What about the IC50 ([2]; 96 h, read-out: Cytotoxicity IC50, PC-3, Table 15, mean ± SD, 96 h treatment, N = 3) of the same compound?
**A.** Its IC50 is 16 ± 1.5 nM.

**Q.** What about the IC50 [2, 21] of the same compound?
**A.** Its IC50 is 12 ± 1 nM.

**Q.** What about the IC50 ([2]; read-out: IC50 in PC3, Table 16B) of the same compound?
**A.** The IC50 was 28 nM.

**Q.** And the “CYP enzyme inhibition in words” value (CYP enzymes)?
**A.** The value was “high IC50 values in micromolar range”.

**Q.** And the F [3]?
**A.** The F was 24%.

**Q.** And the t1/2 [3]?
**A.** Its t1/2 is 5.83 ± 3.57 h.

**Q.** And the “body weight in words” value (PC-3_TxR xenograft)?
**A.** The value was “gaining weight”.

**Q.** What about the IC50 [4, 22] of the same compound?
**A.** Its IC50 is 15 ± 1 nM.

**Q.** What about the permeability in words [5] of the same compound?
**A.** The permeability in words was “more than adequate permeability values”.

**Q.** What about the IC50 [6] of the same compound?
**A.** Its IC50 is 7.5 to 24.1 nM.

**Q.** And the “competition for tubulin binding sites in words” value [7]?
**A.** Its value is “competed effectively with colchicine”.

**Q.** What about the t1/2 ([8]; IV 10 mg/kg) of the same compound?
**A.** The t1/2 was 0.767 h.

**Q.** And the F ([8]; PO 20 mg/kg)?
**A.** The F was 34%.

**Q.** And the t1/2 ([8]; PO 20 mg/kg)?
**A.** The t1/2 was 2.1 h.

**Q.** And the F [9]?
**A.** Its F is 36%.

**Q.** What about the “permeability of endothelial cell monolayer in words” value [10] of the same compound?
**A.** Its value is “increased permeability”.

**Q.** What does the source list for `CC[C@]1(O)C[C@@H]2CN(CCc3c([nH]c4ccccc34)[C@@](C(=O)OC)(c3cc4c(cc3OC)N(C)[C@H]3[C@@](O)(C(=O)OC)[C@H](OC(C)=O)[C@]5(CC)C=CCN6CC[C@]43[C@@H]65)C2)C1` [vinblastine, Vinblastine, reference compound]?
**A.** % T/C (PC-3 xenograft): 29%; IC50 (BCRP resistant cell line): 25 ± 1 nM; IC50 [1, 20]: […]; IC50 ([1]; Table 7, read-out: IC50, LNCaP): 3.4 ± 0.9 nM; IC50 ([1]; Table 21, n = 3, read-out: IC50 ± SEM, LNCaP (converted)): […]; IC50 [11]: 2 ± 0.1 nM; IC50 (HEK293-pcDNA3.1 cells): 5 ± 0.1 nM; IC50 ([12]; A-375, SRB assay, human melanoma A375, read-out: IC50 A375): 1 nM; IC50 ([12]; A-375, Table 14A, n = 3, read-out: IC50 ± SEM, A375 (converted)): […]; IC50 ([12]; A-375, Table 14B, n = 3, read-out: IC50 ± SEM, A375 (converted)): 1 ± 0.1 nM; IC50 ([12]; A-375, Table 21, n = 3, read-out: IC50 ± SEM, A375 (converted)): […]; IC50 ([2]; read-out: IC50, PC-3, Table 7): 1.4 ± 0.3 nM; IC50 [2, 21]: 2.1 nM; IC50 ([2]; read-out: IC50 ± SEM, PC-3, Table 21, n = 3): 2.1 ± 0.2 nM; rotarod performance in words [13]: gradually reduced the time; IC50 [14]: 1 ± 0.2 nM; IC50 ([15]; WM164, Table 14A): 0.6 ± 0.1 nM; IC50 ([15]; WM164, Table 14B): 0.6 ± 0.1 nM; IC50 ([16]; Homo sapiens, MDA-MB-435/LCCMDR1, read-out: IC50 MDR melanoma cell line): 277 to 658 nM; P-gp substrate / multidrug resistance in words ([16]; MDR melanoma line vs sensitive parent line): substrates for P-glycoprotein (P-gp); IC50 (MES-SA cells; SRB assay): 1.4 nM; IC50 (MES-SA cells; Table 7, parental line): 2.3 ± 0.8 nM; IC50 [4, 22]: […]; IC50 ([4]; PPC-1, Table 7, read-out: IC50, PPC-1): […]; IC50 ([17]; B16-F1, SRB assay, mouse melanoma B16-F1, read-out: IC50 B16-F1): 4.7 nM; IC50 ([17]; B16-F1, Table 14A, n = 3, read-out: IC50 ± SEM, B16-F1 (converted)): 4.7 ± 0.7 nM; IC50 ([17]; B16-F1, Table 14B, n = 3, read-out: IC50 ± SEM, B16-F1 (converted)): 5 ± 1 nM; IC50 ([17]; B16-F1, Table 21, n = 3, read-out: IC50 ± SEM, B16-F1 (converted)): 4.7 ± 0.7 nM; IC50 ([18]; Table 14A, sensitive parent cell line, read-out: IC50 ± SEM, MDA-MB-435 (converted)): 0.4 ± 0.1 nM; IC50 ([18]; read-out: IC50 nonresistant melanoma cell line): 0.5 to 10 nM; competition for tubulin binding sites in words [7]: did not inhibit the colchicine-tubulin binding; IC50 ([19]; DU-145, SRB assay, prostate cancer DU 145, read-out: IC50 DU 145): 1.8 nM; IC50 ([19]; DU-145, Table 7, read-out: IC50, DU-145): 2.6 ± 1 nM; IC50 ([19]; DU-145, Table 21, n = 3, read-out: IC50 ± SEM, Du-145): 1.8 ± 1.1 nM; IC50 (MES-SA/DX5 cells; SRB assay): 16 nM; IC50 (MES-SA/DX5 cells; Table 7, P-gp over-expressed): 45.7 ± 5.3 nM
